Results taken from the supplement of paper PMC10331698.
± gives the standard deviation of the averaged measurements.

How the values were obtained:
Test in all cases: level (log10 ratio to DMSO vehicle control); higher = higher biomarker level / cell amount than vehicle control
Perfluorononanoic acid = compound: O=C(O)C(F)(F)C(F)(F)C(F)(F)C(F)(F)C(F)(F)C(F)(F)C(F)(F)C(F)(F)F [Perfluorononanoic acid] (in DMSO)
Protocol: (§1)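 BioMAP Diversity Plus panel of 12 human primary cell co-culture systems (3C, 4H, LPS, SAg, BT, BF4T, BE3C, CASM3C, HDF3CGF, KF3CT, MyoF, Mphg). Compounds were added 1 h before stimulation and left for 24 h (MyoF 48 h; BT 72 h for soluble read-outs or 6 d for IgG). Biomarkers were read by ELISA, cytotoxicity by SRB, PBMC viability and proliferation by Alamar Blue. Each well value was divided by the mean of 8 DMSO control wells on the same plate and log10 transformed; duplicate blinded samples were tested at 4 concentrations.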

[1] = compound: O=S(=O)(O)CCC(F)(F)C(F)(F)C(F)(F)C(F)(F)C(F)(F)C(F)(F)C(F)(F)C(F)(F)F [8:2 Fluorotelomer sulfonic acid] (in DMSO)
Protocol: as §1

Perfluoroundecanoic acid = compound: O=C(O)C(F)(F)C(F)(F)C(F)(F)C(F)(F)C(F)(F)C(F)(F)C(F)(F)C(F)(F)C(F)(F)C(F)(F)F [Perfluoroundecanoic acid] (in DMSO); conditions: 6700 nM
Protocol: as §1

[2] = compound: O=C(O)C(F)(OC(F)(F)C(F)(OC(F)(F)C(F)(OC(F)(F)C(F)(F)C(F)(F)F)C(F)(F)F)C(F)(F)F)C(F)(F)F [Perfluoro-(2,5,8-trimethyl-3,6,9-trioxadodecanoic)acid] (in DMSO)
Protocol: as §1

[3] = compound: O=S(=O)(O)C(F)(F)C(F)(F)C(F)(F)C(F)(F)C(F)(F)C(F)(F)C(F)(F)F [Perfluoroheptanesulfonic acid] (in DMSO)
Protocol: as §1

[4] = compound: C=C(C)C(=O)OCCC(F)(F)C(F)(F)C(F)(F)C(F)(F)C(F)(F)C(F)(F)C(F)(F)C(F)(F)F [8:2 Fluorotelomer methacrylate] (in DMSO)
Protocol: as §1

[5] = compound: OCCC(F)(F)C(F)(F)C(F)(F)C(F)(F)F [4:2 Fluorotelomer alcohol] (in DMSO)
Protocol: as §1

## HDF3CGF:CD106/VCAM-1
Perfluorononanoic acid; 6700 nM
  level (log10): -0.02 ± 0.034
Perfluorononanoic acid; 20000 nM
  level (log10): -0.0225 ± 0.022
[1]; 6700 nM
  level (log10): 0.0015 ± 0.091
[1]; 20000 nM
  level (log10): 0.007 ± 0.073
[1]; 60000 nM
  level (log10): -0.072 ± 0.045
Perfluoroundecanoic acid
  level (log10): -0.213 ± 0.044
[2]; 1100 nM
  level (log10): 0.001 ± 0.017
[2]; 3300 nM
  level (log10): -0.03 ± 0.021
[2]; 10000 nM
  level (log10): -0.0385 ± 0.07
[3]; 1500 nM
  level (log10): -0.0245 ± 0.039
[3]; 4400 nM
  level (log10): -0.024 ± 0.0042
[3]; 13000 nM
  level (log10): -0.0585 ± 0.0064
[3]; 40000 nM
  level (log10): -0.101 ± 0.0092
[4]; 6700 nM
  level (log10): -0.0105 ± 0.013
[4]; 20000 nM
  level (log10): -0.052 ± 0.064
[5]; 6700 nM
  level (log10): -0.023 ± 0.014
[5]; 20000 nM
  level (log10): 0.014 ± 0.035
[5]; 60000 nM
  level (log10): -0.062 ± 0.057

## HDF3CGF:CXCL8/IL-8
Perfluorononanoic acid; 6700 nM
  level (log10): -0.0065 ± 0.0064
Perfluorononanoic acid; 20000 nM
  level (log10): -0.001 ± 0.0099
[1]; 6700 nM
  level (log10): -0.0145 ± 0.0064
[1]; 20000 nM
  level (log10): -0.0045 ± 0.0035
[1]; 60000 nM
  level (log10): -0.0015 ± 0.026
Perfluoroundecanoic acid
  level (log10): 0.013 ± 0.0028
[2]; 1100 nM
  level (log10): 0.0005 ± 0.00071
[2]; 3300 nM
  level (log10): 0 ± 0.0071
[2]; 10000 nM
  level (log10): 0.004 ± 0.0014
[3]; 1500 nM
  level (log10): 0.0125 ± 0.005
[3]; 4400 nM
  level (log10): -0.0115 ± 0.005
[3]; 13000 nM
  level (log10): 0.008 ± 0.0042
[3]; 40000 nM
  level (log10): 0.0065 ± 0.026
[4]; 6700 nM
  level (log10): -0.0045 ± 0.0035
[4]; 20000 nM
  level (log10): -0.0025 ± 0.023
[5]; 6700 nM
  level (log10): -0.007 ± 0.0028
[5]; 20000 nM
  level (log10): -0.0105 ± 0.0064
[5]; 60000 nM
  level (log10): -0.002 ± 0.011

## HDF3CGF:CXCL9/MIG
Perfluorononanoic acid; 6700 nM
  level (log10): -0.04 ± 0.016
Perfluorononanoic acid; 20000 nM
  level (log10): -0.074 ± 0.02
[1]; 6700 nM
  level (log10): -0.048 ± 0.034
[1]; 20000 nM
  level (log10): -0.0575 ± 0.04
[1]; 60000 nM
  level (log10): 0.061 ± 0.034
Perfluoroundecanoic acid
  level (log10): -0.0645 ± 0.005
[2]; 1100 nM
  level (log10): -0.0165 ± 0.005
[2]; 3300 nM
  level (log10): 0.005 ± 0.0057
[2]; 10000 nM
  level (log10): -0.023 ± 0.02
[3]; 1500 nM
  level (log10): -0.0075 ± 0.019
[3]; 4400 nM
  level (log10): -0.008 ± 0.013
[3]; 13000 nM
  level (log10): -0.0275 ± 0.011
[3]; 40000 nM
  level (log10): -0.0505 ± 0.042
[4]; 6700 nM
  level (log10): -0.024 ± 0.0042
[4]; 20000 nM
  level (log10): -0.0275 ± 0.016
[5]; 6700 nM
  level (log10): -0.0335 ± 0.037
[5]; 20000 nM
  level (log10): -0.0065 ± 0.0064
[5]; 60000 nM
  level (log10): 0.01 ± 0.04

## HDF3CGF:CXCL10/IP-10
Perfluorononanoic acid; 6700 nM
  level (log10): -0.019 ± 0.024
Perfluorononanoic acid; 20000 nM
  level (log10): -0.061 ± 0.016
[1]; 6700 nM
  level (log10): -0.014 ± 0.0014
[1]; 20000 nM
  level (log10): -0.0315 ± 0.0092
[1]; 60000 nM
  level (log10): -0.06 ± 0.016
Perfluoroundecanoic acid
  level (log10): -0.144 ± 0.0092
[2]; 1100 nM
  level (log10): 0 ± 0.0085
[2]; 3300 nM
  level (log10): -0.01 ± 0.0085
[2]; 10000 nM
  level (log10): 0.0185 ± 0.026
[3]; 1500 nM
  level (log10): 0.0115 ± 0.036
[3]; 4400 nM
  level (log10): -0.0195 ± 0.025
[3]; 13000 nM
  level (log10): -0.042 ± 0.042
[3]; 40000 nM
  level (log10): -0.0805 ± 0.00071
[4]; 6700 nM
  level (log10): -0.029 ± 0.021
[4]; 20000 nM
  level (log10): -0.0425 ± 0.005
[5]; 6700 nM
  level (log10): -0.0075 ± 0.025
[5]; 20000 nM
  level (log10): -0.002 ± 0.023
[5]; 60000 nM
  level (log10): -0.0095 ± 0.0035

## HDF3CGF:CXCL11/I-TAC
Perfluorononanoic acid; 6700 nM
  level (log10): 0.018 ± 0.013
Perfluorononanoic acid; 20000 nM
  level (log10): 0.0285 ± 0.018
[1]; 6700 nM
  level (log10): -0.053 ± 0.027
[1]; 20000 nM
  level (log10): -0.0285 ± 0.03
[1]; 60000 nM
  level (log10): -0.0865 ± 0.067
Perfluoroundecanoic acid
  level (log10): -0.062 ± 0.024
[2]; 1100 nM
  level (log10): -0.0015 ± 0.011
[2]; 3300 nM
  level (log10): 0.003 ± 0.014
[2]; 10000 nM
  level (log10): -0.0265 ± 0.033
[3]; 1500 nM
  level (log10): -0.042 ± 0.054
[3]; 4400 nM
  level (log10): -0.001 ± 0.0099
[3]; 13000 nM
  level (log10): -0.035 ± 0.018
[3]; 40000 nM
  level (log10): -0.0525 ± 0.035
[4]; 6700 nM
  level (log10): -0.0105 ± 0.025
[4]; 20000 nM
  level (log10): -0.0715 ± 0.013
[5]; 6700 nM
  level (log10): -0.039 ± 0.035
[5]; 20000 nM
  level (log10): 0.011 ± 0.0014
[5]; 60000 nM
  level (log10): -0.0275 ± 0.029

## HDF3CGF:Collagen I
Perfluorononanoic acid; 6700 nM
  level (log10): 0.0345 ± 0.005
Perfluorononanoic acid; 20000 nM
  level (log10): -0.0715 ± 0.036
[1]; 6700 nM
  level (log10): 0.007 ± 0.038
[1]; 20000 nM
  level (log10): 0.0195 ± 0.049
[1]; 60000 nM
  level (log10): -0.0455 ± 0.17
Perfluoroundecanoic acid
  level (log10): -0.0645 ± 0.03
[2]; 1100 nM
  level (log10): 0.027 ± 0.0028
[2]; 3300 nM
  level (log10): -0.014 ± 0.051
[2]; 10000 nM
  level (log10): 0.0475 ± 0.013
[3]; 1500 nM
  level (log10): -0.0005 ± 0.011
[3]; 4400 nM
  level (log10): -0.0075 ± 0.021
[3]; 13000 nM
  level (log10): -0.0105 ± 0.025
[3]; 40000 nM
  level (log10): 0.021 ± 0.075
[4]; 6700 nM
  level (log10): -0.0255 ± 0.029
[4]; 20000 nM
  level (log10): -0.001 ± 0.083
[5]; 6700 nM
  level (log10): -0.0205 ± 0.0078
[5]; 20000 nM
  level (log10): -0.0025 ± 0.0092
[5]; 60000 nM
  level (log10): 0.0475 ± 0.05

## HDF3CGF:Collagen III
Perfluorononanoic acid; 6700 nM
  level (log10): -0.0705 ± 0.043
Perfluorononanoic acid; 20000 nM
  level (log10): -0.168 ± 0.02
[1]; 6700 nM
  level (log10): 0.05 ± 0.014
[1]; 20000 nM
  level (log10): 0.0975 ± 0.0092
[1]; 60000 nM
  level (log10): 0.0145 ± 0.12
Perfluoroundecanoic acid
  level (log10): -0.049 ± 0.05
[2]; 1100 nM
  level (log10): -0.064 ± 0.072
[2]; 3300 nM
  level (log10): 0.014 ± 0.048
[2]; 10000 nM
  level (log10): 0.0695 ± 0.023
[3]; 1500 nM
  level (log10): -0.004 ± 0.018
[3]; 4400 nM
  level (log10): -0.0385 ± 0.053
[3]; 13000 nM
  level (log10): -0.052 ± 0.05
[3]; 40000 nM
  level (log10): -0.0205 ± 0.033
[4]; 6700 nM
  level (log10): -0.032 ± 0.042
[4]; 20000 nM
  level (log10): -0.0325 ± 0.067
[5]; 6700 nM
  level (log10): -0.055 ± 0.068
[5]; 20000 nM
  level (log10): -0.0105 ± 0.0092
[5]; 60000 nM
  level (log10): 0.0335 ± 0.03
